ChEMBL document CHEMBL1121560, “Synthesis and biological activity of 5-fluoro-2'-deoxyuridine 5'-phosphorodiamidates” (J Med Chem, 1980)
The source made the active and inactive calls. The rule behind the calls is not given here.

Legend:
[1] = (§1) Half-life for hydrolysis to 5-fluoro-2'-deoxyuridine-5'-phosphate at 100 degree Centigrade; format: ADME
[2] = Half-life for hydrolysis to 5-fluoro-2'-deoxyuridine-5'-phosphate at […] Centigrade; format: ADME
L5178Y [3] = assay: Comparative inhibition of L5178Y cell growth in vitro (concentration required for 50% inhibition); format: functional, cell-based; conditions: Mus musculus
L5178Y [4] = assay: In vitro percent inhibition at 10 e-8 M against L5178Y cell growth after 72 hr (replicate flasks inoculated with 10 e5 cells were treated with the nucleotide); format: functional; conditions: Mus musculus
[5] = biological target: T1, Thymidylate synthase (Lactobacillus casei) (UniProt P00469); assay: Compound was tested for its inhibition against Thymidylate synthase up to concentration of 1 mM; IA means inactive; conditions: Lacticaseibacillus casei
T1 sequence (whole entry): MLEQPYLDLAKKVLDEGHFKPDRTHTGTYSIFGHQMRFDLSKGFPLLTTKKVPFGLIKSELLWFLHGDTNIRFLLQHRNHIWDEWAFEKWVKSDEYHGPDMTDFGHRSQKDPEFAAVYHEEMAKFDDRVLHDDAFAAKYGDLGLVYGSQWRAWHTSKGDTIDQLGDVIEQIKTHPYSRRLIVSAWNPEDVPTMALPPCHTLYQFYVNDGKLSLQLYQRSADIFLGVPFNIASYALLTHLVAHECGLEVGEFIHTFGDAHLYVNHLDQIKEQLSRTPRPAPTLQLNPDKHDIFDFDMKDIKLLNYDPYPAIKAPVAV

L5178Y [6] = assay: as §1; format: functional; conditions: Mus musculus
[7] = Half-life for hydrolysis to 5-fluoro-2'-deoxyuridine-5'-phosphate at 65 degree Centigrade; format: ADME

Row | SMILES | half-life [1] [h] | half-life [2] [h] | IC50 (L5178Y [3]) [nM] | inhibition at 0.01 µM (L5178Y [4]) [%] | inhibition [5] | T1/2 (L5178Y [6]) [h] | half-life [7] [h]
1 | NP(N)(=O)OC[C@H]1O[C@@H](n2cc(F)c(=O)[nH]c2=O)C[C@@H]1O | 3.9 | 0.25 | 2 | 45 | inactive | – | –
2 | O=c1[nH]c(=O)n([C@H]2C[C@H](O)[C@@H](COP(=O)(O)O)O2)cc1F [5-FLUORODEOXYURIDYLATE] | – | – | 1.4 | 67 | inactive | – | –
3 | O=c1[nH]c(=O)n([C@H]2C[C@H](O)[C@@H](COP(=O)(N3CCOCC3)N3CCOCC3)O2)cc1F | – | – | – | 11 | inactive | 100 | 240
4 | O=c1[nH]c(=O)n([C@H]2C[C@H](O)[C@@H](CO)O2)cc1F [FLOXURIDINE] | – | – | 0.76 | – | inactive | – | –
